In PMC5791972 (PLoS ONE, 2018):
Like-named read-outs stand apart in the source and are kept apart here.

Tests used:
[1] = molecular target: T1, D3 (h) (Homo sapiens, UniProt P35462); type: binding
T1 construct: host or cells: CHO cells

[2] = molecular target: T2, α1A (h) (Homo sapiens, UniProt P35348); type: binding; conditions: 1 h, 1.0E-06 M
T2 construct: expressed in transfected cells; host or cells: CHO cells
T2 sequence (P35348 1-466): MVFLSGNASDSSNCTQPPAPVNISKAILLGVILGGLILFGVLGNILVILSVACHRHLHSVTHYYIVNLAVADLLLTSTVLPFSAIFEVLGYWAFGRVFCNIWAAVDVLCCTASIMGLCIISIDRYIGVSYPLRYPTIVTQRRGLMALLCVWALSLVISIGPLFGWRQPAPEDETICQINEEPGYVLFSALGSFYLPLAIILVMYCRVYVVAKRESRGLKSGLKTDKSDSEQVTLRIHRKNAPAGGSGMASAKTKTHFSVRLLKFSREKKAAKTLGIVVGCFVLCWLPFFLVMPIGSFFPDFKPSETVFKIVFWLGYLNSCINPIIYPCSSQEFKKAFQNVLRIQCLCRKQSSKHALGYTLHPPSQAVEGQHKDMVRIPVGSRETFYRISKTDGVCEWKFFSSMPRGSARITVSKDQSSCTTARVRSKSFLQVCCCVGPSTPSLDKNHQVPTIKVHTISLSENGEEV

[3] = molecular target: carbonic anhydrase II (h) (Homo sapiens, UniProt P00918); assay: biochemical; conditions: 1.0E-06 M
[4] = molecular target: T3, β1 (h) (Homo sapiens, UniProt P08588); type: binding; conditions: 1.0E-06 M
T3 construct: host or cells: HEK-293 cells

[5] = molecular target: T4, UT (h) (Homo sapiens, UniProt Q9UKP6); type: binding
T4 construct: host or cells: CHO cells
T4 sequence (Q9UKP6 1-389): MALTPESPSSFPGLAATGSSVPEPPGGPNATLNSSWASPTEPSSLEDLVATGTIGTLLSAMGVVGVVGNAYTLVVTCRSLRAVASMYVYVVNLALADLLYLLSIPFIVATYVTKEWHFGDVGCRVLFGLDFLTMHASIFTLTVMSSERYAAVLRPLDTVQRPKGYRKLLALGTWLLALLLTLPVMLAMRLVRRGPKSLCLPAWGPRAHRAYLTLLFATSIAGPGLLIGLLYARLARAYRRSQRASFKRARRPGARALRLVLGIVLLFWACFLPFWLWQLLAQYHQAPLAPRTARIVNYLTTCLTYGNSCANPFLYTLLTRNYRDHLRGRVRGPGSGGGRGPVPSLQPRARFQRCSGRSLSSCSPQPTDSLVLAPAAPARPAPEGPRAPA

[6] = molecular target: Ca2+ channel (N) (Rattus norvegicus, UniProt Q02294); assay: biochemical; type: binding
[7] = molecular target: rTRPC5 (Rattus norvegicus, UniProt Q8VD38); assay: Whole-cell manual patch clamp; type: cell-based
[8] = molecular target: 5-HT6 (h) (Homo sapiens, UniProt P50406); assay: biochemical
[9] = molecular target: T5, human TRPC5 (hTRPC5) (Homo sapiens, UniProt Q9UL62); assay: Fluorometric calcium influx assay; type: cell-based; conditions: indicator-assisted calcium influx, 1 pM to 1 μM, n = 8
T5 construct: The cDNAs for various full-length ion channels were subcloned into pcDNA5/TO; expressed in transfected cells

[10] = molecular target: T6, MC3 (h) (Homo sapiens, UniProt P41968); type: binding
T6 construct: host or cells: CHO cells

[11] = molecular target: T7, A1 (h) (Homo sapiens, UniProt P30542); type: binding
T7 sequence (P30542 1-326): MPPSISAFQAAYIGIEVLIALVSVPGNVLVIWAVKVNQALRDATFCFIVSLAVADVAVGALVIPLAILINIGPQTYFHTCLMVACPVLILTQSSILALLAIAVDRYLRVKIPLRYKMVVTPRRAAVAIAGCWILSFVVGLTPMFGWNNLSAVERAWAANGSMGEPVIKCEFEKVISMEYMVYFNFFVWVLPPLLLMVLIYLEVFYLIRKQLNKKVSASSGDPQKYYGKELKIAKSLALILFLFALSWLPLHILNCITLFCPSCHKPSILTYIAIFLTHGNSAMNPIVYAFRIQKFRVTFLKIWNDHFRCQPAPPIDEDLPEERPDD

[12] = molecular target: p38α kinase (h) (Homo sapiens, UniProt Q16539); assay: enzyme assay; type: biochemical; conditions: 1.0E-06 M
[13] = molecular target: TRPM8 (Homo sapiens, UniProt Q7Z2W7); assay: cell-based
[14] = molecular target: T8, hTRPC5 (Homo sapiens, UniProt Q9UL62); assay: Whole-cell manual patch clamp; type: cell-based
T8 construct: The cDNAs for various full-length ion channels were subcloned into pcDNA5/TO; expressed in transfected cells

[15] = molecular target: T9, V2 (h) (Homo sapiens, UniProt P30518); type: binding; conditions: 1.0E-06 M
T9 construct: host or cells: CHO cells

[16] = molecular target: T10, H2 (h) (Homo sapiens, UniProt P25021); type: binding; conditions: 1.0E-06 M
T10 construct: host or cells: CHO cells

[17] = molecular target: CCK2 (CCKB) (h) (Homo sapiens, UniProt P32239); type: binding; conditions: 1.0E-06 M
[18] = molecular target: CCK1 (CCKA) (h) (Homo sapiens, UniProt P32238); type: binding; conditions: 1.0E-06 M
[19] = 1.0E-06 M, read-out: % Inhibition 2nd
[20] = 1.0E-06 M, read-out: % Inhibition Mean
[21] = 1.0E-06 M, read-out: % Inhibition 1st

Chain of p38α kinase (h) (Q16539 whole entry): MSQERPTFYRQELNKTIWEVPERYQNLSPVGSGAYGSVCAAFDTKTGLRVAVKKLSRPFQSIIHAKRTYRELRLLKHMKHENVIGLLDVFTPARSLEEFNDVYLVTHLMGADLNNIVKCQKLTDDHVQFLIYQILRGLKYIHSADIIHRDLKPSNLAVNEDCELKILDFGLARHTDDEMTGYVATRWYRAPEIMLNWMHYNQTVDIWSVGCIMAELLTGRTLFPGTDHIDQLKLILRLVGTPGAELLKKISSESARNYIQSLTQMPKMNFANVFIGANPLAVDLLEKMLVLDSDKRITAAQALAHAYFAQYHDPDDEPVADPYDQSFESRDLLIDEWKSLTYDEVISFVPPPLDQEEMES
Chain of 5-HT6 (h) (P50406 whole entry): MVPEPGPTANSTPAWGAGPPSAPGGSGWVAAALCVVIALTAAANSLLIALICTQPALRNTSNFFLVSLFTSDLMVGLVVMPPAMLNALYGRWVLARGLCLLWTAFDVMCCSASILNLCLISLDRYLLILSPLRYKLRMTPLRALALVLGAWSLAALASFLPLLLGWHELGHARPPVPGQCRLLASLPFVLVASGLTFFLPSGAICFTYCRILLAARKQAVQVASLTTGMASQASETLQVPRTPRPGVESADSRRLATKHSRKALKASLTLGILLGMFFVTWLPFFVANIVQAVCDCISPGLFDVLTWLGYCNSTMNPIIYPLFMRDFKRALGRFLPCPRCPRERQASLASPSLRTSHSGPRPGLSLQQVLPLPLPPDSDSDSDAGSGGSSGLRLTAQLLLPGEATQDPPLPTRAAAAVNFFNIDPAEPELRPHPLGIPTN
T9 sequence (P30518 whole entry): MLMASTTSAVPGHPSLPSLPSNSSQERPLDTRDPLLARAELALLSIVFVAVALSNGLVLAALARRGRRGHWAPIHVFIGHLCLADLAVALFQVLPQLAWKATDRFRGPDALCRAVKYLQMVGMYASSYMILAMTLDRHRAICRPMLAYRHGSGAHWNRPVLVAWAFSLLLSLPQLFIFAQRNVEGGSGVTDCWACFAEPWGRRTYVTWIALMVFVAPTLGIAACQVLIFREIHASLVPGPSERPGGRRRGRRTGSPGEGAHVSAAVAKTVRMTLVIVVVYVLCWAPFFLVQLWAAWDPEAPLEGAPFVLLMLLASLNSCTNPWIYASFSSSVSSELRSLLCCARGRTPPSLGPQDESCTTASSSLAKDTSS
T1 sequence (P35462 whole entry): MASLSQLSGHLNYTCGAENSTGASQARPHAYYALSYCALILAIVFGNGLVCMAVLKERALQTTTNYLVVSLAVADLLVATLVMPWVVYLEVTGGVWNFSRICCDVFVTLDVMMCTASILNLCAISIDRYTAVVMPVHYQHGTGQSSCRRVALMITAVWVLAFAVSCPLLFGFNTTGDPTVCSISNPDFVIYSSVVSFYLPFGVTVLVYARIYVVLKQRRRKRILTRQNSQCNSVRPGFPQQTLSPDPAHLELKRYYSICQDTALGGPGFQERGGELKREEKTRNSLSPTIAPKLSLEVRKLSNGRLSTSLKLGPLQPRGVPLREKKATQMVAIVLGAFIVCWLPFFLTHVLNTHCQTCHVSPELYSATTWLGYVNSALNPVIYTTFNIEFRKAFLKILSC
Chain of CCK1 (CCKA) (h) (P32238 whole entry): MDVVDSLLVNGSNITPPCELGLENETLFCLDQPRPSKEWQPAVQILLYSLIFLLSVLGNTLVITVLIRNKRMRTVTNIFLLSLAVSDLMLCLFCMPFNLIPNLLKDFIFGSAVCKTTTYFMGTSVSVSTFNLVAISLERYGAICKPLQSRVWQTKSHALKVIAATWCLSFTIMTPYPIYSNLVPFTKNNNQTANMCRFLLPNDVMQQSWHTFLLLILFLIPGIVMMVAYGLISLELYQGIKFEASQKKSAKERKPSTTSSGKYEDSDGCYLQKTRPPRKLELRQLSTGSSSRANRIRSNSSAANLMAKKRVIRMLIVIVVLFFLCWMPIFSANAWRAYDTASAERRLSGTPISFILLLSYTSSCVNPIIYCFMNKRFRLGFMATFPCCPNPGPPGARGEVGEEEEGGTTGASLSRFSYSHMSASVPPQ
T10 sequence (P25021 whole entry): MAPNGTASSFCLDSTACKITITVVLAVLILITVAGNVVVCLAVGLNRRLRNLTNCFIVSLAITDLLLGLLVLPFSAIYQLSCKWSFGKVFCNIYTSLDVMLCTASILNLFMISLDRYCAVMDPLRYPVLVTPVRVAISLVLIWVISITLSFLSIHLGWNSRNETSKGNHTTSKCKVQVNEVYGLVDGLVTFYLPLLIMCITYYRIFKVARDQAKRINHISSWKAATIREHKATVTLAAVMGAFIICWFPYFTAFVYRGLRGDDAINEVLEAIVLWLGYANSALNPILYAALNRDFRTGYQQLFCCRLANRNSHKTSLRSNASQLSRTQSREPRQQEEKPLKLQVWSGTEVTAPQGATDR
T6 sequence (P41968 whole entry): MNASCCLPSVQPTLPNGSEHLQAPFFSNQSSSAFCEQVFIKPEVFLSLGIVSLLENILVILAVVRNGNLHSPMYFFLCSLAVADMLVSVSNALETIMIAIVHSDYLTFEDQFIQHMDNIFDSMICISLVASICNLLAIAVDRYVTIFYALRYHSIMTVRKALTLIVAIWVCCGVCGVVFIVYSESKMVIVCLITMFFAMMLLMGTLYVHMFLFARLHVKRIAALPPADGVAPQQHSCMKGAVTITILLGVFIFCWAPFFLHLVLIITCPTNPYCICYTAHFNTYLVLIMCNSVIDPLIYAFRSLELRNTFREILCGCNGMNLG
T3 sequence (P08588 whole entry): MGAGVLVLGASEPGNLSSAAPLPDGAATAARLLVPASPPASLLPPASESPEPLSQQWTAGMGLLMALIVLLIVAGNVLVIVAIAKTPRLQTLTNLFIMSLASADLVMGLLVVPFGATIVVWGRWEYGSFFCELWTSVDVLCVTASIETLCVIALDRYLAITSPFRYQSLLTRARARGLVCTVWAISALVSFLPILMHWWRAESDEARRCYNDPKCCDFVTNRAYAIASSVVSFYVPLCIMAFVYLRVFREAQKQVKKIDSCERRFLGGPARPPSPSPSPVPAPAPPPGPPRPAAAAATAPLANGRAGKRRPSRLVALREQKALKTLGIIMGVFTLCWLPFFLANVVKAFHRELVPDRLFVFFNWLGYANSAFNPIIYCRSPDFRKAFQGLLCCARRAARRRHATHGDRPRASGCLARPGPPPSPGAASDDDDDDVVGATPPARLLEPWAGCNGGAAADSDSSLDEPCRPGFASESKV
Chain of CCK2 (CCKB) (h) (P32239 whole entry): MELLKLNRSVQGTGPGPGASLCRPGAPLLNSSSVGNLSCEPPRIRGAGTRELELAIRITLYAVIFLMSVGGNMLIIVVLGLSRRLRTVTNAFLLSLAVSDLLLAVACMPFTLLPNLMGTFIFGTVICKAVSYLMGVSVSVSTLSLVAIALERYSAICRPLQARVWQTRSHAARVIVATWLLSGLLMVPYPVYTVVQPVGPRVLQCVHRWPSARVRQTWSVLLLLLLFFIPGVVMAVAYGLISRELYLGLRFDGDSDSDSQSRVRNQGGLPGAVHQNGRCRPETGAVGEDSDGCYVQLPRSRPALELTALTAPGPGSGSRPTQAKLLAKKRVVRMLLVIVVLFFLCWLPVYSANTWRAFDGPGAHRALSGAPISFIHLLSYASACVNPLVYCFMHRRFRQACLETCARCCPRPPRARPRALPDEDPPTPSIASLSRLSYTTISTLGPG
T8 sequence (Q9UL62 whole entry): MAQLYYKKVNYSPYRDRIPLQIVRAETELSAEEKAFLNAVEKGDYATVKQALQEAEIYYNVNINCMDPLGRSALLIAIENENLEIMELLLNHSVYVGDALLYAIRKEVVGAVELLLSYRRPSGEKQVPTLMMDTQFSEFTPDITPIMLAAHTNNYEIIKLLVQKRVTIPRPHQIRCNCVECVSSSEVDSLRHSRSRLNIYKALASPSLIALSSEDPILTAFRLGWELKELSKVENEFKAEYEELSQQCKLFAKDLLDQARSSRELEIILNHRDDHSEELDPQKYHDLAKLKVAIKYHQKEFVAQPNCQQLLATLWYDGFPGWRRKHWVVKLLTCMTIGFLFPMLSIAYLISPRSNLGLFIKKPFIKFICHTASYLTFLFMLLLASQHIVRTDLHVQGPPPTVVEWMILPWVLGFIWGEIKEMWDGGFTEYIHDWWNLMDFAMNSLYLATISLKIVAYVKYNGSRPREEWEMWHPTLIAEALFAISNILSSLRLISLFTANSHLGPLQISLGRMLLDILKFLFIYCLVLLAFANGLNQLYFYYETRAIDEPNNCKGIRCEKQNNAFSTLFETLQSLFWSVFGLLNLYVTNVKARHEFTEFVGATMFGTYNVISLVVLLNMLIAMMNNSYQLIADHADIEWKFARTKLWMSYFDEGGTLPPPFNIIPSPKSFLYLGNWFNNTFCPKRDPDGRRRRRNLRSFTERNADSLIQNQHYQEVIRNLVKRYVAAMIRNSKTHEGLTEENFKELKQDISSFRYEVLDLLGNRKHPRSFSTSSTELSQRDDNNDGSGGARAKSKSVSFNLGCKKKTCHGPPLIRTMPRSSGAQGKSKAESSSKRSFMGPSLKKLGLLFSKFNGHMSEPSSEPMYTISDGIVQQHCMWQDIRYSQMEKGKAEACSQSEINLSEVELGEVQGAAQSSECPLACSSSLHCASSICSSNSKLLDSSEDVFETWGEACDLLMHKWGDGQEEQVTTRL
T5 sequence (Q9UL62 whole entry): as above

Cn1c(=O)n(CCCO)c(=O)c2c1nc(Oc1cccc(Cl)c1)n2Cc1ccc(Cl)cc1 [HC-070]
inhibition at 1 µM ([1]; read-out: % Inhibition 1st): 3.6% | inhibition at 1 µM ([1]; read-out: % Inhibition 2nd): 6.4% | inhibition at 1 µM ([1]; read-out: % Inhibition Mean): 5% | inhibition at 1 µM ([2]; read-out: % Inhibition 1st): -6.1% | inhibition at 1 µM ([2]; read-out: % Inhibition 2nd): 3.1% | inhibition at 1 µM ([2]; read-out: % Inhibition Mean): -1.5%

Cn1c(=O)n(CCCO)c(=O)c2c1nc(Oc1cccc(OC(F)(F)F)c1)n2Cc1ccc(Cl)cc1 [HC-608]
inhibition at 1 µM ([3]; read-out: % Inhibition 1st): -0.9% | inhibition at 1 µM ([3]; read-out: % Inhibition 2nd): 0.2% | inhibition at 1 µM ([3]; read-out: % Inhibition Mean): -0.4% | inhibition at 1 µM ([4]; read-out: % Inhibition 1st): -14.5% | inhibition at 1 µM ([4]; read-out: % Inhibition 2nd): -1.8% | inhibition at 1 µM ([4]; read-out: % Inhibition Mean): -8.1% | inhibition at 1 µM [5, 19]: 7% | inhibition at 1 µM [5, 20]: 9.3% | inhibition at 1 µM ([5]; read-out: % Inhibition 1st): 11.5% | inhibition at 1 µM ([6]; read-out: % Inhibition 1st): -5.9% | inhibition at 1 µM ([6]; read-out: % Inhibition 2nd): -13.1% | inhibition at 1 µM ([6]; read-out: % Inhibition Mean): -9.5% | IC50 [7]: ~0.41 nM | inhibition at 1 µM ([8]; read-out: % Inhibition 1st): -5.1% | inhibition at 1 µM ([8]; read-out: % Inhibition 2nd): 7.3% | inhibition at 1 µM ([8]; read-out: % Inhibition Mean): 1.1% | IC50 [9]: 6.2 ± 0.5 nM | inhibition at 1 µM [10, 21]: 14.4% | inhibition at 1 µM [10, 19]: 15.3% | inhibition at 1 µM ([10]; read-out: % Inhibition Mean): 14.8% | inhibition at 1 µM [11, 21]: 22.5% | inhibition at 1 µM [11, 20]: 17.4% | inhibition at 1 µM ([11]; read-out: % Inhibition 2nd): 12.3% | % Inhibition 1st [12]: -0.9% | % Inhibition 2nd [12]: -1.2% | % Inhibition Mean [12]: -1.1% | inhibition at 1 µM ([1]; read-out: % Inhibition 1st): 4% | inhibition at 1 µM ([1]; read-out: % Inhibition 2nd): 9.7% | inhibition at 1 µM ([1]; read-out: % Inhibition Mean): 6.9% | IC50 [13]: > 1640 nM | IC50 ([14]; 20 μM carbachol/M1R): ~0.67 nM | IC50 ([14]; La3+ (80 μM)): ~0.17 nM | inhibition at 1 µM ([15]; read-out: % Inhibition 1st): 8.6% | inhibition at 1 µM ([15]; read-out: % Inhibition 2nd): 5.7% | inhibition at 1 µM ([15]; read-out: % Inhibition Mean): 7.1% | inhibition at 1 µM ([16]; read-out: % Inhibition 1st): 1.1% | inhibition at 1 µM ([16]; read-out: % Inhibition 2nd): 7.7% | inhibition at 1 µM ([16]; read-out: % Inhibition Mean): 4.4% | inhibition at 1 µM ([17]; read-out: % Inhibition 1st): -13.8% | inhibition at 1 µM ([17]; read-out: % Inhibition 2nd): -0.7% | inhibition at 1 µM ([17]; read-out: % Inhibition Mean): -7.2% | inhibition at 1 µM ([18]; read-out: % Inhibition 1st): -11.2% | inhibition at 1 µM ([18]; read-out: % Inhibition 2nd): -0.4% | inhibition at 1 µM ([18]; read-out: % Inhibition Mean): -5.8%
